Results reported in US20260191863A1, “PYRROLOPYRIMIDINE COMPOSITIONS FOR TREATMENT OF ITK MEDIATED CONDITIONS” (ACLARIS THERAPEUTICS, INC., priority 2022, published 2026).

Key:
Type in all cases: cell-based
ITK (IL2 mRNA) = assay: Pre-clinical human whole blood αCD3/28/IL-2 mRNA (2 hr); conditions: Homo sapiens, 2 h; read-out: Human Whole Blood EC50, αCD3/28/IL-2 mRNA (2 hr)
JAK3 (pSTAT5, lymph) = assay: Pre-clinical human whole blood IL-2/pSTAT5 (20 min), lymphocytes; conditions: Homo sapiens, Lymphocyte, 20 min; read-out: Human Whole Blood EC50, IL-2/pSTAT5 (20 min)
ITK & JAK (IFNγ protein) = assay: Pre-clinical human whole blood αCD3 + IL-15/IFNγ (18 hr); conditions: Homo sapiens, 18 h; read-out: Human Whole Blood EC50, αCD3 + IL-15/IFNγ (18 hr)
[1] = tested on: IL15 stimulated IFNγ protein; assay: Pre-clinical human whole blood IL-15/IFNγ (5 hr); conditions: Homo sapiens, 5 h, read-out: Human Whole Blood EC50, IL-15/IFNγ (5 hr)
JAK2 = target: T1, JAK2 (Homo sapiens, UniProt O60674); assay: Cell IC50 JAK2
T1 construct: endogenous in cells
T1 sequence (O60674 whole entry): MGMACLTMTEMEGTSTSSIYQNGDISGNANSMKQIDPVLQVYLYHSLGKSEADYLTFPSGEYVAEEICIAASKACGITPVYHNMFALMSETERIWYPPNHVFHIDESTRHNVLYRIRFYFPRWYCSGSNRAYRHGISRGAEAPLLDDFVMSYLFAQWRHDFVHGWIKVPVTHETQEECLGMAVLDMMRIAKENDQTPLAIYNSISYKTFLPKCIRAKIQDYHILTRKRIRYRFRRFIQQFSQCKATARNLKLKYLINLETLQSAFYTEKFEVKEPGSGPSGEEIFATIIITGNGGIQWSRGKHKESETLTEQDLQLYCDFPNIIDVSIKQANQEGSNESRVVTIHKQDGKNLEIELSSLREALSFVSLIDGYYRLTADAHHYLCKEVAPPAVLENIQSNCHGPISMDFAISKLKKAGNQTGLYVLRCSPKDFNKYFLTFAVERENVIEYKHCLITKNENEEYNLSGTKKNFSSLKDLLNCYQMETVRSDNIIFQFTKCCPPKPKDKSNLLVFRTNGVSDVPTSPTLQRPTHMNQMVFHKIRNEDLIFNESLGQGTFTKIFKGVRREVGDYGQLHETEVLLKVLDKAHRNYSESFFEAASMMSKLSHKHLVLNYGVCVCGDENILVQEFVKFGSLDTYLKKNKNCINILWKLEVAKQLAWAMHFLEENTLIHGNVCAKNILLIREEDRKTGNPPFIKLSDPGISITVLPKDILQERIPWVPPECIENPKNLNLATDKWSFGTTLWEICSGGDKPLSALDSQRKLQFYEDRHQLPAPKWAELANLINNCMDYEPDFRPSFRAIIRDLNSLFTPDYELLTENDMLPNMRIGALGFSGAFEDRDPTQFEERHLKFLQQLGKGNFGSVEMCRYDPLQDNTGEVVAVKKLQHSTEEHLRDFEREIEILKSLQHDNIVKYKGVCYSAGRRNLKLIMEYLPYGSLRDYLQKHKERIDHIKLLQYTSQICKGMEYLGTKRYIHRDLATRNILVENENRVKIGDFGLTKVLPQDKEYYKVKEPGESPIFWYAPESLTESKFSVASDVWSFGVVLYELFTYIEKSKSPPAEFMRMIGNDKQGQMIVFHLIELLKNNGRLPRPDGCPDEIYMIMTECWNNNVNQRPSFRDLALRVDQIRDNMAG

ITK = target: T2, ITK (Homo sapiens, UniProt Q08881); assay: Cell IC50 ITK (Jurkat/pPLCγ1)
T2 construct: (Jurkat/pPLCγ1); endogenous in cells; host or cells: Jurkat
T2 sequence (Q08881 1-620): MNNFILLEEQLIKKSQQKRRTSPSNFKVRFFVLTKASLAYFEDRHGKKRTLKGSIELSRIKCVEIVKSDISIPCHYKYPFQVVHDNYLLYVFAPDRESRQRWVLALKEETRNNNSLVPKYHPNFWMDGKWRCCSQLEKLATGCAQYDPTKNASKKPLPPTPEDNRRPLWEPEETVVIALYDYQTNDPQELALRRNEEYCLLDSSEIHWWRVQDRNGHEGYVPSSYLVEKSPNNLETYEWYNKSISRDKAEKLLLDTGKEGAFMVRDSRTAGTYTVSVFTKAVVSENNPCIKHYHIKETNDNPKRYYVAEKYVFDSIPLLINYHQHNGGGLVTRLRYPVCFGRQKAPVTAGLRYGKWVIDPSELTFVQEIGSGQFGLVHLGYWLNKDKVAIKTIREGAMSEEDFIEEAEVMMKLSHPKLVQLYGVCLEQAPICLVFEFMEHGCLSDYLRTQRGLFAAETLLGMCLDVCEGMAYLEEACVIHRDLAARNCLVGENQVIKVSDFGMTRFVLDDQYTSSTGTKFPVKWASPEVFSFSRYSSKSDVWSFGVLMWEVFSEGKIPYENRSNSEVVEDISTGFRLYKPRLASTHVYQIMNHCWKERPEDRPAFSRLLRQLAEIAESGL

EC50 (ITK (IL2 mRNA))	EC50 (JAK3 (pSTAT5, lymph))	EC50 (ITK & JAK (IFNγ protein))	EC50 [1]	Cell IC50, JAK2 (JAK2)	Cell IC50, ITK (ITK)	SMILES
740 nM	[…]	33 nM	52 nM	Inactive		C=CC(=O)N1C[C@H](Nc2ncnc3[nH]ccc23)CC[C@@H]1C [Ritlecitinib, reference compound]
					Inactive	C[C@@H]1CCN(C(=O)CC#N)C[C@@H]1N(C)c1ncnc2[nH]ccc12 [Tofacitinib, reference compound]
